Test results: ChEMBL document CHEMBL1152381, “Investigation of aminopyridiopyrazinones as PDE5 inhibitors: Evaluation of modifications to the central ring system” (Bioorg Med Chem Lett, 2009)
≈ marks a conversion by molar mass, not a printed value.

What was measured:
[1] = Inhibition of PDE6
[2] = Inhibition of PDE11
[3] = Aqueous solubility at pH 7.4; assay type: physicochemical
[4] = Metabolic stability in human liver microsomes assessed as compound remaining after 30 mins; assay type: ADME, Microsome; conditions: read-out: Stability
hERG (KCNH2) = hERG (KCNH2) (Homo sapiens, UniProt Q12809); assay: Displacement of dofetilide from human ERG at 10 uM; conditions: probe dofetilide
hERG (KCNH2), sequence (Q12809 whole entry): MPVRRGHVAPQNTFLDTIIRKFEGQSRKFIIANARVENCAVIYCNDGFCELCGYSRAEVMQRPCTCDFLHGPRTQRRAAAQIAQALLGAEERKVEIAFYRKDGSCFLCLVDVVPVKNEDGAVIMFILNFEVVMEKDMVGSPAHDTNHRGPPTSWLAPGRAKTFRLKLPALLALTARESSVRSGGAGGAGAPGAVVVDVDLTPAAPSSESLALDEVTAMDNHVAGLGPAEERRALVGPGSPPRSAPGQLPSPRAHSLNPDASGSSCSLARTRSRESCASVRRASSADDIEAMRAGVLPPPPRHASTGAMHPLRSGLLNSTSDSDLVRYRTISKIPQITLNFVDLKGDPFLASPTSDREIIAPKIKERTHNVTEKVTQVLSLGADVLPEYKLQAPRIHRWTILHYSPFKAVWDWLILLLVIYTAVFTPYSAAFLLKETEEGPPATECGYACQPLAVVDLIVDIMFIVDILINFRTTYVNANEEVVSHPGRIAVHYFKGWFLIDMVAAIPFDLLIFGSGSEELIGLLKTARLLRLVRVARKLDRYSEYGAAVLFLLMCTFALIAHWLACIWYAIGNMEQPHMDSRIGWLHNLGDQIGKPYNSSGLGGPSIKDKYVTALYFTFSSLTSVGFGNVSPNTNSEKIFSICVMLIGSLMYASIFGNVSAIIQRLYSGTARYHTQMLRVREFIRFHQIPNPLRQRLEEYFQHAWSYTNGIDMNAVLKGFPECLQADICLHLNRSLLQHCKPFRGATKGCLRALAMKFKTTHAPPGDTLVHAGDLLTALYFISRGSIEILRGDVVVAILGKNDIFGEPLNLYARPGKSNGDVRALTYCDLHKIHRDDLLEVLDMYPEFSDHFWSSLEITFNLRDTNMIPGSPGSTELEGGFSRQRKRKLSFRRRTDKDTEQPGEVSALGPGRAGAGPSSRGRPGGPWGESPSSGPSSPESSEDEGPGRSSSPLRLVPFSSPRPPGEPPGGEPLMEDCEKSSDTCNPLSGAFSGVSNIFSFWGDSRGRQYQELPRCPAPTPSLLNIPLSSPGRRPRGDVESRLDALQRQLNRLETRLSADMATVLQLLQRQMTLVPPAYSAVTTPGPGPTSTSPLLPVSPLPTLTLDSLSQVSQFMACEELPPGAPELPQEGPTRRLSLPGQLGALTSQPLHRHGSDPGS

[5] = Volume of distribution in Sprague-Dawley rat at 2 mg/kg, iv and 2 mg/kg, po; assay type: ADME, organism-based; conditions: in vivo
[6] = Clearance in Sprague-Dawley rat at 2 mg/kg, iv and 2 mg/kg, po; assay type: ADME, organism-based; conditions: in vivo
[7] = Half life in Sprague-Dawley rat at 2 mg/kg, iv and 2 mg/kg, po; assay type: ADME, organism-based; conditions: in vivo
[8] = Bioavailability in Sprague-Dawley rat at 2 mg/kg, iv and 2 mg/kg, po; assay type: ADME, organism-based; conditions: in vivo
[9] = Plasma protein binding in Sprague-Dawley rat at 2 mg/kg, iv and 2 mg/kg, po; assay type: ADME, organism-based; conditions: read-out: PPB (converted)
[10] = biological target: cGMP-specific 3',5'-cyclic phosphodiesterase (Homo sapiens, UniProt O76074); assay: Inhibition of PDE5
[11] = Metabolic stability in human hepatocytes assessed as compound remaining after 30 mins; assay type: ADME, cell-based, Hepatocyte; conditions: read-out: Stability
[12] = biological target: Voltage-gated inwardly rectifying potassium channel KCNH2 (Homo sapiens, UniProt Q12809); assay: Inhibition of human ERG by patch-clamp electrophysiology assay
Voltage-gated inwardly rectifying potassium channel KCNH2, sequence (Q12809 whole entry): as above

Rattus norvegicus = assay: Antihypertensive activity in SHR rat assessed as reduction in systemic arterial blood pressure at 1.5 mg/kg, ip administered as single bolus dose measured for > 3 hrs; assay type: functional, Artery; conditions: route intraperitoneal
[13] = Selectivity ratio of IC50 for PDE6 to IC50 for PDE5
[14] = Selectivity ratio of IC50 for PDE11 to IC50 for PDE5

Row | SMILES | IC50 [1] | IC50 [2] | solubility [3] | remaining at 0.5 h [4] | inhibition at 10 µM (hERG (KCNH2)) | Vd [5] | clearance [6] | half-life [7] | bioavailability [8] | fraction unbound [9] | IC50 [10] | remaining at 0.5 h [11] | inhibition (INH) [12] | Activity (Rattus norvegicus) | Ratio IC50 [13] | Ratio IC50 [14]
1 | CCCOCCn1c(=O)c(NCCN2CCOCC2)nc2ccc(-c3ccc(OC)nc3)nc21 | 339 nM | 1540 nM | 4.6 µM (≈ 2.16 µg/mL) | 10% | 14% | 8 L/kg | 67.6 mL/min/kg | 3.1 h | 23% | 0.104 |  |  |  |  |  | 
2 | CCCOCCn1c(=O)c(NCCN2CCOCC2)nc2cnc(-c3ccc(OC)nc3)nc21 | 83 nM | 1470 nM | 4.6 µM (≈ 2.16 µg/mL) | 22% | 15% |  |  |  |  |  | 1.21 nM |  |  |  |  | 
3 | CCCOCCn1c(=O)c(NCCN2CCOCC2)nc2ccc(-c3ccc(OC)nc3)cc21 | 177 nM | > 1990 nM |  |  | 43% |  |  |  |  |  | 0.9 nM | 20% |  |  |  | 
4 | CCCOCCn1c(=O)c(NCCN2CCOCC2)nc2ncc(-c3ccc(OC)nc3)cc21 | 61.8 nM | 1390 nM | 46 µM (≈ 21.6 µg/mL) | 18% | 34% | 18.8 L/kg | 178 mL/min/kg | 3.4 h |  | 0.235 | 0.34 nM |  | 34% | 25 mmHg |  | 
5 | CCCOCCn1c(=O)c(NCCN2CCOCC2)nc2ncc(-c3ccc(OC)nc3)nc21 | 297 nM | 3560 nM |  | 12% | 11% | 5.2 L/kg | 151 mL/min/kg | 0.6 h |  | 0.088 | 1.21 nM |  |  |  | < 30 | 335
6 | CCCOCCn1c(=O)c(NCCN2CCOCC2)nc2cnc(-c3ccc(OC)nc3)cc21 | 11.3 nM | 346 nM | 18 µM (≈ 8.43 µg/mL) | 38% | 23% | 1.6 L/kg | 33.6 mL/min/kg | 3.2 h | 21% | 0.5 | 0.07 nM |  |  |  |  | 
